The values that follow come from US20090053138A1, “Stabilized Aptamers to Platelet Derived Growth Factor and their Use as Oncology Therapeutics” (priority 2002, published 2009).

Series [1] addresses T1, PDGF BB (Homo sapiens, UniProt P01127). The experiment in a line: Competition binding assay, PDGF-BB. More on the design: purchased PeproTech, Rocky Hill, N.J. To be noted: Table 2, mean affinity, competitive binding assay; read-out: Affinity. As for the experimental part:
Binding reactions were carried out in phosphate-buffered saline (Cellgro, Herndon, Va.) containing 0.2 mg/mL bovine serum albumin (NEB) and 0.02 mg/mL tRNA (Sigma, St. Louis, Mo.). The reactions were equilibrated for a period of 15-30 minutes at room temperature, then filtered through a sandwich of nitrocellulose (Protran membrane, Perkin-Elmer, Boston, Mass.) and nylon (Hybond membrane, Amersham, Piscataway, N.J.) membranes to separate target bound aptamer from free aptamer.
Next, a study was done to determine whether ARC126 cross reacted with PDGF-BB of species other than human. Competition binding assays were set up by dot blot analysis, as previously described, using human, rat, and mouse PDGF-BB (PeproTech, Rocky Hill, N.J.).
The competitive binding assay previously described was used to determine the in vitro binding affinity and selectivity of ARC594 for different PDGF isoforms. Different concentrations of unlabeled, competitor aptamer were titrated in separate reactions against a fixed (<0.1 nM) amount of ^32P-radiolabeled ARC594 in buffer containing a fixed amount (0.1 nM) of the aptamer's cognate target (PDGF-BB; PeproTech). UnPEGylated version of ARC594 was radiolabeled at the 5′ terminus by incubation with γ-^32P-ATP (ICN) and polynucleotide kinase (NEB). Binding reactions were carried out in phosphate-buffered saline (Cellgro) containing 0.2 mg/mL bovine serum albumin (NEB) and 0.02 mg/mL tRNA (Sigma). The reactions were equilibrated for a period of 15-30 minutes at room temperature, then filtered through a sandwich of nitrocellulose (Protran membrane, Perkin-Elmer) and nylon (Hybond membrane, Amersham) membranes to separate target bound aptamer from free aptamer. […] The data was expressed as the ratio of the counts per minute (CPM) of radioactivity due to ^32P-ARC594 bound to PDGF BB on the nitrocellulose membrane (CPMnitrocellulose or CPMnc) over the total CPM (CPMtotal=CPMnitrocellulose+CPMnylon).

The target of series [2] is T1, PDGF BB. The series is described as follows: 3T3 cell proliferation assay (PDGF-BB induced). The series is classed as cell-based, rat. The arrangement: purchased PeproTech, Rocky Hill, N.J. As to conditions: for potency compared to ARC127: tyrosine kinase inhibitors. As for the experimental part: 3T3 cells, a rat fibroblast cell line (ATCC, Manassas, Va.), were plated 3,000 cells/well in a 96 well plate one day prior to the start of the assay in 100 ul DMEM/10% FCS. The following day, cells were washed once with straight DMEM and then 75 ul DMEM/0.8% FCS was added to each well. […] Cells were incubated for 3 days. Following incubation 10 ul MTT (Promega, Madison, Wis.) was added to each well and incubated for an additional 1.5 hours. Media was then removed, 200 ul Isopropanol (2-propanol) was added to each well, cells were re-suspended thoroughly and absorbance at 570 nm was read on a 96 well plate reader.
(§1) 3T3 cells, which are derived from a rat fibroblast cell line (ATCC, Manassas, Va.), were used in a proliferation assay to test potency of modified ARC513 aptamers. 3T3 fibroblast cells have PDGF receptors on their cell-surface and respond to mitogen, e.g., PDGF stimulation by proliferation. The assay was performed as follows: 3T3 cells were plated 3,000 cells/well in a 96 well plate one day prior to the start of the assay in 100 ul DMEM/10% FCS. The following day, cells were washed once with straight DMEM and then 75 ul DMEM/0.8% FCS was added to each well. Then 25 ul of PDGF-BB (PeproTech, Rocky Hill, N.J.) at a 50 ng/ml final concentration was added to each well +/− aptamer condition to be tested. […] The functional PDGF aptamer dilutions usually consisted of 6 points in 2-fold serial dilutions.
Cells were incubated for 3 days. Following incubation 10 ul MTT (Promega, Madison, Wis.) was added to each well and incubated for an additional 1.5 hours. Media was removed, 200 μl Isopropanol (2-propanol) was added to each well, cells were re-suspended thoroughly and absorbance at 570 nm was read on a 96 well plate reader. The present example depicts the potency comparison of PDGF aptamer ARC: 513 to that of ARC 513 variants.
The 3T3 proliferation assay previously described was used to test potency of all PEG conjugated ARC513 variants described immediately above. The assay was performed as follows: 3T3 cells were plated 3,000 cells/well in a 96 well plate one day prior to the start of the assay in 100 ul DMEM/10% FCS. The following day, cells were washed once with straight DMEM and then 75 ul DMEM/0.8% FCS was added to each well. Then 25 ul of PDGF-BB (PeproTech, Rocky Hill, N.J.) at a 50 ng/ml final concentration was added to each well +/− aptamer condition to be tested. […] The functional PDGF aptamer dilutions usually consisted of 6 points in 2-fold serial dilutions.
Cells were incubated for 3 days. Following incubation 10 ul MTT (Promega, Madison, Wis.) was added to each well and incubated for an additional 1.5 hours. Media was removed, 200 μl Isopropanol (2-propanol) was added to each well, cells were re-suspended thoroughly and absorbance at 570 nm was read on a 96 well plate reader. The present example depicts the potency comparison of PDGF aptamer ARC513 to that of PEGylated ARC513 aptamers.
as §1, with “3T3” for “3T3 cells, which are derived from a rat fibroblast cell line (ATCC, Manassas, Va.), were used in a proliferation assay to test potency of modified ARC513 aptamers. 3T3”, “100 μl” for “100 ul”
Cells were incubated for 3 days. Following incubation 10 ul MTT (Promega, Madison, Wis.) was added to each well and incubated for an additional 1.5 hours. Media was removed, […] Isopropanol (2-propanol) was added to each well, cells were re-suspended thoroughly and absorbance at 570 nm was read on a 96 well plate reader.

Series [3] is described as follows: Pharmacokinetics of ARC126 5′ PEG conjugates in mice. To be noted: IV administration at 10 mg/kg in mice.
Excerpt: The pharmacokinetic (PK) data shown in FIG. 12A was subjected to non-compartmental analysis (NCA) using the industry-standard software package WinNonLin™ v.4.0 (Pharsight Corp., Mountain View, Calif.). […] The pharmacokinetic (PK) data shown in FIG. 12B was subjected to noncompartmental analysis (NCA) using the industry-standard software package WinNonLin™ v.4.0 (Pharsight Corp., Mountain View, Calif.).
The pharmacokinetic (PK) data shown in FIG. 12B was subjected to noncompartmental analysis (NCA) using the industry-standard software package WinNonLin™ v.4.0 (Pharsight Corp., Mountain View, Calif.).
In series [4] the test system is LS174T colon cancer xenograft. As to conditions: Experiment 3. The source says: Experimental overview. Human HT-29 or LS174T colon cancer xenotransplants were established in athymic nude mice (Nu/Nu mice, Charles River Labs, Wilmington, Mass.) by injecting mice with 1×10^7 HT29 cells (ATCC, Manassas, Va.), or 2×10^6 LS174T cells (ATCC Manassas, Va.) sub-cutaneously and allowing the tumors to grow for 5 days. On day 5, two dimensional measurements of the established tumors were taken using a digital caliper. Once tumor measurements were taken, the mice were randomized into groups such that the average tumor size was the same in each group. […]
A third experiment (Experiment 3) was designed to test ARC308/irinotecan and GLEEVEC™/irinotecan dosing regimens in a colon cancer xenotransplant model using human colon carcinoma cell line LS174T (ATCC). […] ARC308 was dosed via intraperitoneal delivery at 50 mg/kg once daily, and GLEEVEC™ was dosed at 50 mg/kg once daily, Monday through Friday. ARC308 prevents PDGF-BB from binding the PDGF receptor; this molecule has a 30K PEG attached. […] The results are statistically significant (two tailed students T-test).
An efficacy analysis of three treatment groups in this study is shown in Table 10 in terms of log cell kill and log cell kill net. Log cell kill is the log(base10) of the number of tumor cells before treatment divided by the number of cells after treatment. […] A fourth experiment (Experiment 4) was designed to further test ARC308/irinotecan dosing regimens in a colon cancer xenotransplant model using human colon carcinoma cell line LS174T (ATCC). […]

Setting [5] is: Table 2, mean activity, 3T3 proliferation assay, read-out: Activity.

Read-outs that look alike come from different tables or passages of the source. [invdT] = inverted (3'-3') thymidine Bounds are passed on as bounds.

T1 sequence (P01127 82-190 limits assumed): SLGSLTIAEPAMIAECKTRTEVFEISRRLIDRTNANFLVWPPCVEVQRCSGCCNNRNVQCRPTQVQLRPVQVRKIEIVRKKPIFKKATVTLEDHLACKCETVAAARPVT

As for “5′-(SEQ ID NO: 36)-PEG-(SEQ ID NO: 37)-PEG-(SEQ ID NO: 38)-[3′]-3′ (chain 1 CAGGCTACG; chain 2 CGTAGAGCATCA; chain 3 TGATCCTG; piece 1: 2'-O-methyl at 9, other sugars and backbone not given here; piece 2: 2'-O-methyl at 5, 7, 12, other sugars and backbone not given here; piece 3: 2'-O-methyl at 8, other sugars and backbone not given here; further chemistry not fully specified) [ARC276]”, the Kd with PDGF BB [1] stood at 0.23 nM. In addition, in the series with PDGF BB [2] (setting [5]), the IC50 was found to be 18 nM.

With “5′-(SEQ ID NO: 69)-PEG-(SEQ ID NO: 40)-PEG-(SEQ ID NO: 70)-[3′T]-3′ (chain 1 CCCAGGCTACG; chain 2 CGTAGAGCAUCA; chain 3 TGATCCTGGG; piece 1: 2'-O-methyl at 11, other sugars and backbone not given here; piece 2: 2'-O-methyl at 5, 7, 10, 11, 12, other sugars and backbone not given here; piece 3: 2'-O-methyl at 5, 8, 9, 10, 3' [invdT], other sugars and backbone not given here; pieces joined by PEG spacers) [ARC513]”, the IC50 in the series with PDGF BB [2] (PDGF-BB 50 ng/ml, read-out: IC50 values routinely displayed) is less than 10 nM.

“5′-[20K PEG]-(SEQ ID NO:1)-HEG-(SEQ ID NO:2)-HEG-(SEQ ID NO:3)-3′-dT-3′ (chain 1 CAGGCUACG; chain 2 CGTAGAGCAUCA; chain 3 TGATCCUG; 5′ 20 kDa PEG; HEG spacers; 3′ dT cap; synthetic aptamer; modified_base (6)..(6) uridine is 2′-fluoro; modified_base (8)..(8) cytidine is 2′-fluoro; modified_base (9)..(9) gm; modified_base (5)..(5) gm; modified_base (7)..(7) gm; modified_base (10)..(10) uridine is 2′-fluoro; modified_base (11)..(11) cytidine is 2′-fluoro; modified_base (12)..(12) adenosine is 2′-O-Methyl; modified_base (5)..(6) cytidine is 2′-fluoro; modified_base (7)..(7) uridine is 2′-fluoro; modified_base (8)..(8) gm) [ARC240]”: in series [3], the Cmax came out at 34.3 µM, the “MRT” value is 1.16 h, the “Vs” value is 0.0003 L/kg and the “t1/2” value came out at 0.94 h.

Regarding “124 (ACCATGATCCTGTG; 3' inverted dT, further chemistry not given here) [compound 124]”, the Kd in the series with PDGF BB [1] is 0.21 nM. Besides, the IC50 in the series with PDGF BB [2] (setting [5]) was found to be 3.45 nM; with PDGF BB [2] (Table 6, PDGF-BB 50 ng/ml, nM, read-out: Mean IC50) it was 20.7 nM.

In the case of `Cc1cc2ncc(-c3ccccc3)nc2cc1C` [AG 1295, reference compound], at PDGF BB [2], the “potency compared to ARC127” value is listed as “much worse potencies”.

Take `Cc1cc2ncc(-c3ccc(O)c(O)c3)nc2cc1C` [AG 1433, reference compound]: on PDGF BB [2] (signal lower than no treatment), the “unspecific toxic effects, concentration from which visible” value is no less than 300 nM. Further, on PDGF BB [2], the “potency compared to ARC127” value is on record as “much worse potencies”.

For the molecule `CCc1c2c(nc3ccc(OC(=O)N4CCC(N5CCCCC5)CC4)cc13)-c1cc3c(c(=O)n1C2)COC(=O)[C@]3(O)CC` [Irinotecan, irinotecan, reference compound], the “Activity Assessment” value in series [4] is reported as “Active”. Moreover, the Log cell kill in series [4] (target size 1000 mm^3, ARC308 50 mg/kg, irinotecan 150 mg/kg, combination extrapolated) is given as 1.95. Further, the “Log cell kill net” value in series [4] (treatment duration 18 days, combination extrapolated) is given as 0.28.

As for “SEQ ID NO: 42-PEG-SEQ ID NO: 43-PEG-SEQ ID NO: 44 (chain 1 CAGGCTACG; chain 2 CGTAGAGCATCA; chain 3 TGATCCTG; DNA, backbone not given here; PEG-6 spacers join the three pieces) [ARC299]”, the “binding affinity and cell-based assay activity (in words)” value with PDGF BB [2] (in vitro biochemical binding and cell-based proliferation assays) is listed as “significantly reduced activity/potency”.
